The target in assay [1] is T1, SHP2 enzyme (catalytic domain, amino acid sequence 224-528) (Homo sapiens, UniProt Q06124).
T1 construct: purchased GenScript
T1 sequence (Q06124 224-528): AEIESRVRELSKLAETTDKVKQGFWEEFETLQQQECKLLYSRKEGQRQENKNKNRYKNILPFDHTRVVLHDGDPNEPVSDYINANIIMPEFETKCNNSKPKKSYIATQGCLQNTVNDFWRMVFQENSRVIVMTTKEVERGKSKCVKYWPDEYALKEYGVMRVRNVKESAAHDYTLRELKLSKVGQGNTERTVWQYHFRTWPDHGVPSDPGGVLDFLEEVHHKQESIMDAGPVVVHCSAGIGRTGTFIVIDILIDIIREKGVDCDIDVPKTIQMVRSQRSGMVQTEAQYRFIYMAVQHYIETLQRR
As to the kind of experiment: SHP2 enzyme inhibition assay (DiFMUP substrate, fluorescence). Particulars: for pIC50: SHP2 catalytic domain, DiFMUP substrate, 30 min pre-incubation, read-out: S HP2 I C50; for SHP2 IC50 times lower than control compound 11a-1: relative to 11a-1, IC50 = 0.108 µM. It counts as biochemical. The procedure, abridged:
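SHP2 catalytic domain (aa 224-528) preincubated 30 min at room temperature with compounds (10-point 3-fold series) in HEPES pH 7.2 buffer with NaCl, EDTA, DTT, BSA, Brij35. DiFMUP from 50 µM working solution added, 5 min reaction; fluorescence 340/450 nm; IC50 from nonlinear dose-response fit.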

A further assay has as its system KYSE520. As to the kind of experiment: CellTiter-Glo cell proliferation inhibition, KYSE520. It counts as cell-based, human. Particulars: Homo sapiens, KYSE-520; KYSE520 cells, 120 hours, CellTiter-Glo. The source says: In this study, the CellTiter-Glo® Luminescent Cell Viability Assay kit from Promega was used to evaluate the inhibitory effects of the disclosed compounds on the proliferation of cell lines KYSE520 (a human esophageal squamous cell carcinoma cell line dependent on SHP2 for growth), MeWo (a human malignant melanoma cell line), and MV4-11 (an RTK-mutant human acute monocytic leukemia cell line).
KYSE520 cells (Nanjing Kebaio Biotechnology Co., Ltd., Catalog #CBP60658) were thawed by rapidly shaking the cryovial in a 37 °C water bath to thaw within 1 minute. The thawed cell suspension was mixed homogeneously with RPMI 1640 medium (HyClone, Catalog #SH30027.01) containing 10% FBS (ExCell, Catalog #FND500), centrifuged at 1000 rpm for 5 minutes, and the supernatant was discarded. The cell pellet was resuspended in 5 mL of complete culture medium (RPMI 1640 medium containing 10% FBS) and placed in a cell culture flask with 25 cm^2 of bottom area, then cultured in a cell culture incubator at 37 °C, 95% humidity, and 5% CO2. Cell passaging was performed when the cell confluence reached approximately 80%. During cell passaging, the old culture medium was discarded, the cells were washed once with DPBS (Thermo Fisher, Catalog #14190-144), and 1 mL of trypsin (Thermo Fisher, Catalog #25200072) was added to digest the cells. When the cells dispersed into single cells and detached from the bottom of the culture flask, 3 mL of fresh complete culture medium was added to stop the digestion. After gently pipetting the cell suspension, 1/5 of the cell suspension was retained, 5 mL of fresh complete culture medium was added, and after mixing, the cells were placed in a cell culture flask for further culture. Cell plating was performed when the cell confluence again reached approximately 80%. During cell plating, following the cell passaging method, 1/5 of the cell suspension was retained for continued culture, and the remaining 4/5 of the cell suspension was placed in a 15 mL centrifuge tube. Cell viability was determined using the trypan blue exclusion method to ensure that cell viability was above 90%. A cell suspension with a density of 2.22 × 10^4 cells/mL was prepared using complete culture medium, and 135 µL of the cell suspension was added to a 96-well transparent flat-bottom black-walled cell culture plate (Greiner, Catalog #655090), resulting in a cell density of 3000 viable cells per well. A control group containing only complete culture medium without cells and compounds (i.e., culture medium control) and a control group containing cells but no compound (i.e., cell control) were set up. The cell plates were incubated overnight in a cell culture incubator. First, a 10 mM stock solution of the compound (Example compound and positive control compound 11a-1) in DMSO (Damas-beta, catalog #75927R) was serially diluted 3-fold to the 9th concentration, and a 10th concentration containing only DMSO (without compound) was also prepared as a control. Then, the DMSO solutions containing different concentrations of the compound were diluted 100-fold with complete culture medium, resulting in a 1% DMSO concentration in each solution. Finally, 15 µL of each solution was added to the corresponding wells of the cell culture plate, resulting in a starting compound concentration of 10 µM, with a 3-fold dilution between adjacent concentrations, and a final DMSO concentration of 0.1% in the cell culture plate. The cell plates were then incubated in the cell culture incubator for another 120 hours.
For endpoint detection, CellTiter-Glo reagent (Promega, catalog number #G7573, CellTiter-Glo® Luminescent Cell Viability Assay Kit) was melt and each cell plate was moved to room temperature for equilibration for 30 minutes. 75 µL (KYSE520 cells) or 50 µL (MeWo cells and MV 4-11 cells) of CellTiter-Glo was added to each well of the corresponding cell plate. The plates were shaken on a track-mounted shaker for 2 minutes to fully lyse the cells. […]
On the technique in general: In ATP-based viability assays light output follows the ATP content of the culture.

pIC50: −log10 of the molar value.

This is an account of results in patent EP4741383A1, “COMPOUND AND USE THEREOF AS ANTI-CANCER DRUG” (Tyligand Bioscience (Shanghai) Limited, priority 2023, dated 2025).

For orientation: IC50 means the concentration at which inhibition is half-maximal.

For `O=C(Nc1ccc(-c2oc3cc(F)c(-c4nnn[nH]4)cc3c2C2CCC2)cc1)C(=O)Nc1ccc(N2CCC3(CCOC3)CC2)cc1` [Example 125], in assay [1], the pIC50 was 7.29. In the assay on KYSE520, this molecule displayed an IC50 of 0.68 µM.

For `O=C(Nc1ccc(-c2cc3cc(F)c(-c4nnn[nH]4)cc3n2C2CCC2)cc1)C(=O)Nc1ccc(N2CCC3(CCOCC3)CC2)cc1` [Example 76], the pIC50 in assay [1] was 7.40. The molecule also yielded an IC50 in the assay with KYSE520 of 0.096 µM.

Regarding `CC1(n2c(-c3ccc(NC(=O)C(=O)Nc4ccc(N5CCC6(CC5)CC(CO)C6)cc4)cc3)cc3cc(F)c(-c4nnn[nH]4)cc32)CCC1` [Example 97], in assay [1], the pIC50 is 6.98. Also, the concentration for half-maximal inhibition (IC50) with KYSE520 came to 0.095 µM.

With `CC1(n2c(-c3ccc(NC(=O)C(=O)Nc4ccc(N5CCC6(CCOC6)CC5)cc4)cc3)cc3cc(F)c(-c4nnn[nH]4)cc32)CC1` [Example 70], the pIC50 in assay [1] was 7.30. Further, the IC50 with KYSE520 worked out at 0.085 µM.

Take `O=C(Nc1ccc(-c2cc3cc(F)c(-c4nnn[nH]4)cc3n2C2CCC2)cc1)C(=O)Nc1ccc(N2CC3(CCOCC3)C2)cc1` [Example 57]: the pIC50 in assay [1] is 7.17. The molecule further gave an IC50 with KYSE520 of 0.164 µM.

With `O=C(Nc1ccc(-c2ccsc2)cc1)C(=O)Nc1ccc(-c2cc3cc(F)c(-c4nnn[nH]4)c(F)c3n2C2CCC2)cc1` [Example 134], the pIC50 in assay [1] was 7.16. This molecule also gave an IC50 with KYSE520 of 0.334 µM.

As to `Cn1c(-c2cccc(NC(=O)C(=O)Nc3ccc(-c4ccsc4)cc3)c2)c(I)c2cc(C(=O)O)c(O)cc21` [Example 11a-1, reference compound], the pIC50 in assay [1] is 6.97. In addition, half-maximal inhibition with KYSE520 (IC50) required 1.23 µM.

Turning to `CC1(n2c(-c3ccc(NC(=O)C(=O)Nc4ccc(N5CCC(CCO)CC5)cc4)cc3)cc3cc(F)c(-c4nnn[nH]4)cc32)CCC1` [Example 26], the pIC50 in assay [1] is 7.21. Moreover, it took 0.126 µM to reach half-maximal inhibition in the assay on KYSE520 (IC50).

For the molecule `CC1(n2c(-c3ccc(NC(=O)C(=O)Nc4ccc(N5CCC6(CCC(O)C6)CC5)cc4)cc3)cc3cc(F)c(-c4nnn[nH]4)cc32)CCC1` (centres unmarked) [Example 101], in assay [1], the pIC50 was 7.64 and the “SHP2 IC50 times lower than control compound 11a-1” value is on record as 3-4 times. The same molecule showed an IC50 in the assay with KYSE520 of 0.128 µM.

For the molecule `O=C(Nc1ccc(-c2cc3cc(F)c(-c4nnn[nH]4)cc3n2C2CCC2)cc1)C(=O)Nc1ccc(N2CCOCC2)cc1` [Example 47], the pIC50 in assay [1] is 7.20.

For the molecule `CC1(O)CC2(CCN(c3ccc(NC(=O)C(=O)Nc4ccc(-c5cc6cc(F)c(-c7nnn[nH]7)cc6n5C5CCC5)cc4)cc3)CC2)C1` [Example 94], in assay [1], the pIC50 is 7.51 and the “SHP2 IC50 times lower than control compound 11a-1” value was 3-4 times. Moreover, the IC50 in the assay on KYSE520 is 0.115 µM.

Take `O=C(Nc1ccc(-c2cc3cc(F)c(-c4nnn[nH]4)cc3n2C2CCC2)cc1)C(=O)Nc1ccc(N2CCC3(CC2)CC(CO)C3)cc1` [Example 96]: in assay [1], the pIC50 is 7.24. In the assay with KYSE520, this molecule showed an IC50 of 0.059 µM.

Regarding `O=C(Nc1ccc(-c2ccsc2)cc1)C(=O)Nc1ccc(-c2cc3cc(F)c(-c4nnn[nH]4)nc3n2C2CCC2)cc1` [Example 132], the pIC50 in assay [1] was 7.57. In addition, the midpoint of inhibition in the assay on KYSE520, the IC50, lay at 1.1 µM.

`O=C(Nc1ccc(-c2cc3cc(F)c(-c4nnn[nH]4)cc3n2C2CCC2)cc1)C(=O)Nc1ccc(N2CCC3(CCCOC3)CC2)cc1` [Example 74]: the pIC50 in assay [1] was 7.19. This molecule also showed an IC50 in the assay with KYSE520 of 0.116 µM.

On to `O=C(Nc1ccc(-c2cc3cc(F)c(-c4nnn[nH]4)cc3n2C2CCC2)cc1)C(=O)Nc1ccc(N2CCC(CCO)CC2)cc1` [Example 25], for which the pIC50 in assay [1] was 7.23. Also, half-maximal inhibition in the assay on KYSE520 (IC50) was put at 0.056 µM.

In the case of `O=C(Nc1ccc(-c2ccsc2)cc1)C(=O)Nc1ccc(-c2cc3cnc(-c4nnn[nH]4)nc3n2C2CCC2)cc1` [Example 131], in assay [1], the pIC50 was 7.59.

For `O=C(Nc1ccc(-c2ccsc2)cc1)C(=O)Nc1ccc(-c2cc3cc(F)c(-c4nnn[nH]4)cc3n2C2CCC2)cc1` [Example 4], in assay [1], the pIC50 was 7.54 and the “SHP2 IC50 times lower than control compound 11a-1” value is 3-4 times.

Take `O=C(Nc1ccc(-c2cc3cc(F)c(-c4nnn[nH]4)cc3n2C2CCC2)cc1)C(=O)Nc1ccc(N2CCC(CO)CC2)cc1` [Example 23]: the pIC50 in assay [1] is 6.99.
